Patent US9145392B2, “Imidazole amines as modulators of kinase activity” (Merck Patent GmbH, priority 2011, dated 2015)

Columns and labels:
P70S6K (T412E mutant) = P70S6K (T412E mutant) (Homo sapiens (Human), UniProt P23443, T412E); experiment: P70S6K enzyme assay; type: biochemical; settings: read-out: IC50 p70S6K
How it was run: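 Phosphorylated product and substrate peptide separated by microfluidic capillary electrophoresis (Caliper LabChip 3000), product peaks resolving before substrate.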

His-AKT (Full Length) = His-AKT (Full Length) (Homo sapiens (Human), UniProt P31749); experiment: AKT enzyme assay; type: biochemical; settings: read-out: IC50 AKT
Chain of His-AKT (Full Length) (P31749 whole entry): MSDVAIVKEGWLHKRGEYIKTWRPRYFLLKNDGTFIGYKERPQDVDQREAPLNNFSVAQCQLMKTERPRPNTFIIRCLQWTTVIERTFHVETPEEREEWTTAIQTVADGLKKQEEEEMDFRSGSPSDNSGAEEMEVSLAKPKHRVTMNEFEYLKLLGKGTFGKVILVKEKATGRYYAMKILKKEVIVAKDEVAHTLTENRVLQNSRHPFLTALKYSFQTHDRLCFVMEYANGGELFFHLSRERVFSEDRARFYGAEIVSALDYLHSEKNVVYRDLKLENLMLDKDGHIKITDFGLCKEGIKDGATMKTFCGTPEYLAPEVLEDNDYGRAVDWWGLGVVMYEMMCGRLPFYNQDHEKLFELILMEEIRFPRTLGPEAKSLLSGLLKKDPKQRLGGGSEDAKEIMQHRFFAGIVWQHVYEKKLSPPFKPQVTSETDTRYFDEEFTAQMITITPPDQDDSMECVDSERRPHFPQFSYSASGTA

Chain of P70S6K (T412E mutant) (P23443 whole entry T412E): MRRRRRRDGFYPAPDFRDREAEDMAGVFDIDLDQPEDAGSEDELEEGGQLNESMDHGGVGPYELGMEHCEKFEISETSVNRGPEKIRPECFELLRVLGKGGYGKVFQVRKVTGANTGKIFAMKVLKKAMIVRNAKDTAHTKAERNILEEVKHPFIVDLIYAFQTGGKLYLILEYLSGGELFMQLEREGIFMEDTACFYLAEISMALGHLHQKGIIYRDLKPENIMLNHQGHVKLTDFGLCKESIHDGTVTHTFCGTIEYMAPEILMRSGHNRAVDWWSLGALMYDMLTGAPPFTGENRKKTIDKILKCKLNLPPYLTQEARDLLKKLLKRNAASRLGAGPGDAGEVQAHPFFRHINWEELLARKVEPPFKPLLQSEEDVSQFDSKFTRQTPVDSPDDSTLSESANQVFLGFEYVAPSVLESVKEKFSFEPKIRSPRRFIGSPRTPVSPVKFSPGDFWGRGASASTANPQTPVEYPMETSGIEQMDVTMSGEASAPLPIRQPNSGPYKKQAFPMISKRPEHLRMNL

IC50 (P70S6K (T412E mutant)) [nM] | IC50 (His-AKT (Full Length)) [nM] | SMILES
12 | 385 | CCc1c(N)ncnc1N1CCC(c2nc(-c3ccc(F)c(F)c3)cn2CCN2CC(F)C2)CC1 [Compound 199, 6-(4-{4-(3,4-Difluoro-phenyl)-1-[2-(3-fluoro-azetidin-1-yl)-ethyl]-1H-imidazol-2-yl}-piperidin-1-yl)-5-ethyl-pyrimidin-4-ylamine]
21 | 640 | CCc1c(N)ncnc1N1CCC(c2nc(-c3ccc(F)cc3)cn2CCN2CC(F)C2)CC1 [Compound 200, 5-Ethyl-6-{4-[1-[2-(3-fluoro-azetidin-1-yl)-ethyl]-4-(4-fluoro-phenyl)-1H-imidazol-2-yl]-piperidin-1-yl}-pyrimidin-4-ylamine]
16 | > 1000 | CCc1c(N)ncnc1N1CCC(c2nc(-c3ccc(F)cc3)cn2CCN2CCC3(COC3)C2)CC1 [Compound 201, 5-Ethyl-6-(4-{4-(4-fluoro-phenyl)-1-[2-(2-oxa-6-aza-spiro[3.4]oct-6-yl)-ethyl]-1H-imidazol-2-yl}-piperidin-1-yl)-pyrimidin-4-ylamine]
9 | 89 | CCc1c(N)ncnc1N1CCC(c2nc(-c3ccc(F)c(F)c3)cn2CCN2CCC3(COC3)C2)CC1 [Compound 202, 6-(4-{4-(3,4-Difluoro-phenyl)-1-[2-(2-oxa-6-aza-spiro[3.4]oct-6-yl)-ethyl]-1H-imidazol-2-yl}-piperidin-1-yl)-5-ethyl-pyrimidin-4-ylamine]
30 | 2500 | CCc1c(N)ncnc1N1CCC(c2nc(-c3ccc(F)c(F)c3)cn2CCN2CCC23COC3)CC1 [Compound 203, 6-(4-{4-(3,4-Difluoro-phenyl)-1-[2-(6-oxa-1-aza-spiro[3.3]hept-1-yl)-ethyl]-1H-imidazol-2-yl}-piperidin-1-yl)-5-ethyl-pyrimidin-4-ylamine]
37 | 3600 | CCc1c(N)ncnc1N1CCC(c2nc(-c3ccc(F)cc3)cn2CCN2CCC23COC3)CC1 [Compound 204, 5-Ethyl-6-(4-{4-(4-fluoro-phenyl)-1-[2-(6-oxa-1-aza-spiro[3.3]hept-1-yl)-ethyl]-1H-imidazol-2-yl}-piperidin-1-yl)-pyrimidin-4-ylamine]
0.8 | 1.3 | N#Cc1c(N)ncnc1N1CCC(c2nc(-c3cnc(F)c(Cl)c3)cn2CCN2CCC2)CC1 [Compound 205, 4-Amino-6-{4-[1-(2-azetidin-1-yl-ethyl)-4-(5-chloro-6-fluoro-pyridin-3-yl)-1H-imidazol-2-yl]-piperidin-1-yl}-pyrimidine-5-carbonitrile]
2.4 | 13 | N#Cc1c(N)ncnc1N1CCC(c2nc(-c3ccnc(F)c3)cn2CCN2CCC2)CC1 [Compound 206, 4-Amino-6-{4-[1-(2-azetidin-1-yl-ethyl)-4-(2-fluoro-pyridin-4-yl)-1H-imidazol-2-yl]-piperidin-1-yl}-pyrimidine-5-carbonitrile]
22 | 105 | N#Cc1c(N)ncnc1N1CCC(c2nc(-c3ccc4[nH]ncc4c3)cn2CCN2CCC2)CC1 [Compound 207, 4-Amino-6-{4-[1-(2-azetidin-1-yl-ethyl)-4-(1H-indazol-5-yl)-1H-imidazol-2-yl]-piperidin-1-yl}-pyrimidine-5-carbonitrile]
3.2 | 7.6 | CCc1c(N)ncnc1N1CCC(c2nc(-c3ccc(F)c(C(F)(F)F)c3)cn2CCN2CCCC2)CC1 [Compound 208]
3.1 | 2.2 | Nc1ncnc(N2CCC(c3nc(-c4ccc(F)c(C(F)(F)F)c4)cn3CCN3CCCC3)CC2)c1Cl [Compound 209]
3.7 | 3 | Nc1ncnc(N2CCC(c3nc(-c4ccc(O)c(C(F)(F)F)c4)cn3CCN3CCCC3)CC2)c1Cl [Compound 210]
23 | 23 | Nc1ncnc(N2CCC(c3nc(-c4ccc(F)c(C(F)(F)F)c4)cn3CCN3CCCC3)CC2)c1F [Compound 211]
6.7 | 16 | C=C(C)c1c(N)ncnc1N1CCC(c2nc(-c3ccc(F)c(C(F)(F)F)c3)cn2CCN2CCCCC2)CC1 [Compound 212]
7.9 | 20 | C=C(C)c1c(N)ncnc1N1CCC(c2nc(-c3ccc(F)c(C(F)(F)F)c3)cn2CCN2CCCC2)CC1 [Compound 213]
50 | 180 | Nc1cc(N2CCC(c3nc(-c4ccc(F)c(C(F)(F)F)c4)cn3CCN3CCCC3)CC2)ncn1 [Compound 214]
6.1 | 10 | Cc1c(N)ncnc1N1CCC(c2nc(-c3ccc(F)c(C(F)(F)F)c3)cn2CCN2CCCC2)CC1 [Compound 215]

IC50 (P70S6K (T412E mutant)) [nM] | IC50 (His-AKT (Full Length)) [nM] | SMILES
3.8 | 9 | Nc1ncnc(N2CCC(c3nc(-c4ccc(F)c(C(F)(F)F)c4)cn3CCN3CCCCC3)CC2)c1Cl [Compound 216]
1.5 | 2.3 | Nc1ncnc(N2CCC(c3nc(-c4ccc(F)c(C(F)(F)F)c4)cn3CCN3CCC3)CC2)c1Br [Compound 217]
0.6 | 1 | Nc1ncnc(N2CCC(c3nc(-c4ccc(F)c(C(F)(F)F)c4)cn3CCN3CCC3)CC2)c1Cl [Compound 218]
2.4 | 2.3 | Nc1ncnc(N2CCC(c3nc(-c4ccc(F)c(C(F)(F)F)c4)cn3CCN3CCC3)CC2)c1-c1ccc(F)cc1 [Compound 219]
2.6 | 4.2 | C=Cc1c(N)ncnc1N1CCC(c2nc(-c3ccc(F)c(C(F)(F)F)c3)cn2CCN2CCC2)CC1 [Compound 220]
21 | 71 | Nc1cc(N2CCC(c3nc(-c4ccc(F)c(C(F)(F)F)c4)cn3CCN3CCC3)CC2)ncn1 [Compound 221]
11 | 43 | COC(=O)c1ccc(-c2c(N)ncnc2N2CCC(c3nc(-c4ccc(F)c(C(F)(F)F)c4)cn3CCN3CCC3)CC2)cc1 [Compound 222]
21 | 78 | COC(=O)c1ccc(-c2c(N)ncnc2N2CCC(c3nc(-c4ccc(F)c(C(F)(F)F)c4)cn3CCN3CCCC3)CC2)cc1 [Compound 223]
5.7 | 12 | Nc1ncnc(N2CCC(c3nc(-c4ccc(F)c(C(F)(F)F)c4)cn3CCN3CCC3)CC2)c1-c1ccc(C(=O)O)cc1 [Compound 224]
5.8 | 12 | Nc1ncnc(N2CCC(c3nc(-c4ccc(F)c(C(F)(F)F)c4)cn3CCN3CCCC3)CC2)c1-c1ccc(C(=O)O)cc1 [Compound 225]
1.3 | 1.7 | Nc1ncnc(N2CCC(c3nc(-c4ccc(F)c(F)c4)cn3CCN3CCCC3)CC2)c1Br [Compound 226]
1.4 | 2.9 | Nc1ncnc(N2CCC(c3nc(-c4ccc(F)cc4)cn3CCN3CCCC3)CC2)c1Br [Compound 227]
1.4 | 5.9 | Nc1ncnc(N2CCC(c3nc(-c4cccc(F)c4)cn3CCN3CCCC3)CC2)c1Br [Compound 228]
6.3 | 71 | Nc1ncnc(N2CCC(c3nc(-c4ccc(C(F)(F)F)c(F)c4)cn3CCN3CCCC3)CC2)c1Br [Compound 229]
2.1 | 4.1 | CCc1c(N)ncnc1N1CCC(c2nc(-c3ccc(F)c(C(F)(F)F)c3)cn2CCN2CCC2)CC1 [Compound 230]
3.6 | 46 | CCc1c(N)ncnc1N1CCC(c2nc(-c3cccc(F)c3)cn2CCN2CCCC2)CC1 [Compound 231]
2.3 | 20 | CCc1c(N)ncnc1N1CCC(c2nc(-c3ccc(F)cc3)cn2CCN2CCCC2)CC1 [Compound 232]
